Assay results reported in patent US7960382B2, “Compounds and their use related to compositions for treating disease” (Allergan, Inc., priority 2005, dated 2011).

Assays:
microbial attack [1] = assay: Preservation of ophthalmic compositions from microbial attack; settings: brimonidine/timolol compositions of the invention
Source text: Ophthalmic products are typically packaged in multidose form. Preservatives are thus required to prevent microbial contamination during use. Suitable preservatives include: benzalkonium chloride, thimerosal, chlorobutanol, methyl paraben, propyl paraben, phenylethyl alcohol, edetate disodium, sorbic acid, Onamer M, or other agents known to those skilled in the art. In the prior art ophthalmic products, typically such preservatives are employed at a level of from 0.004% to 0.02%. In the compositions of the present application the preservative, preferably benzalkonium chloride, may be employed at a level of from 0.001% to less than 0.01%, e.g. from 0.001% to 0.008%, preferably about 0.005% by weight. […] This concentration may be advantageously compared to the requirement of 0.01% benzalkonium chloride to preserve timolol in the individual, commercially-available ophthalmic products.

microbial attack [2] = settings: cited from earlier work
[3] = Formation of the compound in a brimonidine tartrate / timolol maleate composition stored at ambient temperature (age of composition); assay type: physicochemical; settings: for Compound Concentration (% weight/vol): composition initially 0.2% brimonidine tartrate and 0.68% timolol maleate, pH 6.9, ambient temperature
Procedure: The compound disclosed herein can also be used to estimate the age of a composition, stored at ambient temperature, initially comprising brimonidine tartrate and timolol maleate of known amounts and having a pH of 6.9. The age of the […] (λ) in months is determined by equation 3, where B^o, T^o, and C^o are the initial concentrations of brimonidine, timolol maleate, and the compound respectively, in % (w/v). λ=C^o/(1.1×10^−3(B^oT^o)) [eq. 3] Equation 3 is an approximation which assumes that B^o and T^o>>C^o. If that is not the case, the age is determined using the rate constant k=1.1×10^−3 month^−1%^−1 and the appropriate rate expression.
If the composition initially comprises 0.2% brimonidine tartrate and 0.68% timolol maleate. The age of the composition may be determined according to Table 2 below. Alternatively, up to about 36 months, the age is determined by multiplying the concentration of the compound in % (w/v) by 9100.

Molecule: benzalkonium chloride
- concentration sufficient to preserve the compositions of the present invention from microbial attack (microbial attack [1]): 0.005%
- concentration required to preserve timolol in the individual, commercially-available ophthalmic products (microbial attack [2]): 0.01%

Molecule: O=C(O)C1CC(=O)N2CCN=C2N1c1ccc2nccnc2c1Br (stereo not drawn) [Compound, 8-(5-bromoquinoxalin-6-yl)-5-oxo-2,3,5,6,7,8-hexahydroimidazo[1,2-a]pyrimidine-7-carboxylic acid]
- Compound Concentration (% weight/vol) ([3]; Age 1 month): 0.0001 % weight/vol
- Compound Concentration (% weight/vol) ([3]; Age 2 months): 0.0002 % weight/vol
- Compound Concentration (% weight/vol) ([3]; Age 3 months): 0.0003 % weight/vol
- Compound Concentration (% weight/vol) ([3]; Age 4 months): 0.0004 % weight/vol
- Compound Concentration (% weight/vol) ([3]; Age 5 months): 0.0006 % weight/vol
- Compound Concentration (% weight/vol) ([3]; Age 6 months): 0.0007 % weight/vol
- Compound Concentration (% weight/vol) ([3]; Age 7 months): 0.0008 % weight/vol
- Compound Concentration (% weight/vol) ([3]; Age 8 months): 0.0009 % weight/vol
- Compound Concentration (% weight/vol) ([3]; Age 9 months): 0.001 % weight/vol
- Compound Concentration (% weight/vol) ([3]; Age 10 months): 0.0011 % weight/vol
- Compound Concentration (% weight/vol) ([3]; Age 11 months): 0.0012 % weight/vol
- Compound Concentration (% weight/vol) ([3]; Age 12 months): 0.0013 % weight/vol
- Compound Concentration (% weight/vol) ([3]; Age 13 months): 0.0014 % weight/vol
- Compound Concentration (% weight/vol) ([3]; Age 14 months): 0.0016 % weight/vol
- Compound Concentration (% weight/vol) ([3]; Age 15 months): 0.0017 % weight/vol
- Compound Concentration (% weight/vol) ([3]; Age 16 months): 0.0018 % weight/vol
- Compound Concentration (% weight/vol) ([3]; Age 17 months): 0.0019 % weight/vol
- Compound Concentration (% weight/vol) ([3]; Age 18 months): 0.0020 % weight/vol
- Compound Concentration (% weight/vol) ([3]; Age 19 months): 0.0021 % weight/vol
- Compound Concentration (% weight/vol) ([3]; Age 20 months): 0.0022 % weight/vol
- Compound Concentration (% weight/vol) ([3]; Age 21 months): 0.0023 % weight/vol
- Compound Concentration (% weight/vol) ([3]; Age 22 months): 0.0024 % weight/vol
- Compound Concentration (% weight/vol) ([3]; Age 23 months): 0.0026 % weight/vol
- Compound Concentration (% weight/vol) ([3]; Age 24 months): 0.0027 % weight/vol
- rate constant k (formation of the compound from brimonidine tartrate and timolol maleate) ([3]; composition stored at ambient temperature, pH 6.9): 1.1×10^−3 month^−1%^−1
